Measurements reported in PubChem BioAssay (NCI).
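Growth conditions: 96-well plates. Treatment: test compound, 48 hours, 5 concentrations. Analysis: linear interpolation between bracketing concentrations; unreached endpoints set to highest concentration. The concentration for 50% growth inhibition is given as GI50. TGI: total growth inhibition.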

Experiments:
Assay in all cases: inhibition of tumour cell growth, NCI panel, 48 h
OVCAR-4 ovarian = tested on: OVCAR-4 ovarian
SN12C renal = tested on: SN12C renal
TK-10 renal = tested on: TK-10 renal
SF-539 CNS = tested on: SF-539 CNS
HS 578T breast = tested on: HS 578T breast
NCI/ADR-RES ovarian = tested on: NCI/ADR-RES ovarian
K-562 leukemia = tested on: K-562 leukemia
KM12 colon = tested on: KM12 colon
SR leukemia = tested on: SR leukemia
SF-268 CNS = tested on: SF-268 CNS

Compound	TGI (OVCAR-4 ovarian)	TGI (SN12C renal)	TGI (TK-10 renal)	TGI (SF-539 CNS)	TGI (HS 578T breast)	TGI (NCI/ADR-RES ovarian)	TGI (K-562 leukemia)	TGI (KM12 colon)	TGI (SR leukemia)	TGI (SF-268 CNS)	GI50 (OVCAR-4 ovarian)	GI50 (SN12C renal)	GI50 (TK-10 renal)	GI50 (SF-539 CNS)	GI50 (HS 578T breast)	GI50 (NCI/ADR-RES ovarian)	GI50 (K-562 leukemia)	GI50 (KM12 colon)	GI50 (SR leukemia)	GI50 (SF-268 CNS)
CCOC(=O)C(C/C=C/CO)N(C)C(=O)OC(C)(C)C (stereo not given)	> 100 µM	> 100 µM	> 100 µM	> 100 µM	> 100 µM	> 100 µM	> 100 µM	> 100 µM	> 100 µM	> 100 µM	–	–	–	–	–	–	–	–	–	–
COc1ccc(C2=NC(c3ccc(Cl)cc3)C(c3ccc(Cl)cc3)N2C(=O)N2CCNC(=O)C2)c(OC(C)C)c1 (stereo not given)	4.47 µM	3.49 µM	3.39 µM	4.01 µM	6.45 µM	3.83 µM	> 10 µM	3.69 µM	5.89 µM	3.97 µM	2.16 µM	1.94 µM	1.93 µM	2.02 µM	2.65 µM	1.92 µM	3.47 µM	1.84 µM	2.33 µM	2.11 µM
Cc1ccc(/C=C2/N=C(N/N=C\c3ccccc3)NC2=O)cc1	55.1 µM	> 100 µM	> 100 µM	> 100 µM	85.3 µM	> 100 µM	> 100 µM	> 100 µM	> 100 µM	> 100 µM	–	–	–	–	–	–	–	–	–	–
N#Cc1nc(-c2cccc(-c3nc(C#N)c(N)o3)n2)oc1N	> 100 µM	> 100 µM	> 100 µM	> 100 µM	> 100 µM	> 100 µM	> 100 µM	> 100 µM	> 100 µM	> 100 µM	–	–	–	–	–	–	–	–	–	–
CCOC(=O)C1=C(C)N(Cc2ccccc2)C2(O)C=CC(=O)C3=C(O)c4ccccc4C(=O)C312 (stereo not given)	38.7 µM	32.1 µM	32.5 µM	32.6 µM	97.7 µM	0.708 µM	61 µM	28.5 µM	14.1 µM	23.7 µM	–	–	–	–	–	–	–	–	–	–
CCOC(=O)CCC(NC(=O)c1ccc(Nc2nc3ccccc3nc2C(=O)OCC)cc1)C(=O)OCC (stereo not given)	3.91 µM	> 40.7 µM	6.43 µM	5.62 µM	21.7 µM	27 µM	> 100 µM	> 100 µM	> 100 µM	43.7 µM	–	–	–	–	–	–	–	–	–	–
CC/C(N)=N\NC(=O)OC(C)(C)C	> 100 µM	> 100 µM	> 100 µM	> 100 µM	> 100 µM	> 100 µM	> 100 µM	> 100 µM	> 100 µM	> 100 µM	–	–	–	–	–	–	–	–	–	–
CN1CCN([C@H]2C[C@H]3[C@@H]4CC=C5C[C@@H](O)CC[C@]5(C)[C@H]4CC[C@]3(C)[C@H]2O)CC1	> 56.6 µM	> 100 µM	> 100 µM	> 56.5 µM	> 100 µM	> 100 µM	39.7 µM	> 86.3 µM	53.3 µM	> 59.4 µM	–	–	–	–	–	–	–	–	–	–
O=S(=O)(O)c1cc(S(=O)(=O)O)c2c(N=Nc3ccc(N=Nc4ccccc4)cc3)c(O)ccc2c1	> 100 µM	> 100 µM	> 100 µM	> 100 µM	> 100 µM	> 100 µM	> 100 µM	> 100 µM	> 100 µM	> 100 µM	–	–	–	–	–	–	–	–	–	–
